Experimental findings from ChEMBL document CHEMBL1201862, “PubChem BioAssay data set” (2004) are described below.

The source made the active and inactive calls.

Data set [1] concerns the target T1, Short transient receptor potential channel 4 (Mus musculus, UniProt Q9QUQ5).
T1 sequence (Q9QUQ5 whole entry): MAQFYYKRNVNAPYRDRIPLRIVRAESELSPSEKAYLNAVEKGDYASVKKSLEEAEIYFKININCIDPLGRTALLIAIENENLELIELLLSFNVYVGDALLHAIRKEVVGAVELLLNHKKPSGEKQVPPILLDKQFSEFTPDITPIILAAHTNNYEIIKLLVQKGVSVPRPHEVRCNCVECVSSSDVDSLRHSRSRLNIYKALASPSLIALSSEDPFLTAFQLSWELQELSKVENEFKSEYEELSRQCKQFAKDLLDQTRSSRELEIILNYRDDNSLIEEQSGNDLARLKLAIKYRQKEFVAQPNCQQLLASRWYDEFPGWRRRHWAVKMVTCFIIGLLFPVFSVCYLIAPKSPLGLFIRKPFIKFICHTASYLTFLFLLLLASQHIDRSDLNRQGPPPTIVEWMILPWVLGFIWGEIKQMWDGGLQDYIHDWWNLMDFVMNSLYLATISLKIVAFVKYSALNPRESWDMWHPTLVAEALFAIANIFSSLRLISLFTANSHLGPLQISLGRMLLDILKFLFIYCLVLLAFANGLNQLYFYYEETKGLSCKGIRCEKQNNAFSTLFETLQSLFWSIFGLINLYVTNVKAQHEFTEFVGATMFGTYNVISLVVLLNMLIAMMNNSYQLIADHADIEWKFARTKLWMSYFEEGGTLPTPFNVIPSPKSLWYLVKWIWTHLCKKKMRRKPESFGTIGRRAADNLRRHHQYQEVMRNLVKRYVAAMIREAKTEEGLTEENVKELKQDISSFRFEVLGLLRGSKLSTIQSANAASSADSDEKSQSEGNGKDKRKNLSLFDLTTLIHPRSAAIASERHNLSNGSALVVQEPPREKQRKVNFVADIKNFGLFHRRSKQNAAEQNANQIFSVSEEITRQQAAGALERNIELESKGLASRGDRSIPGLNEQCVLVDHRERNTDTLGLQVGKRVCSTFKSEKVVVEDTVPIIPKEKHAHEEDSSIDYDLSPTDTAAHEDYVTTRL
In words: TRPC4 positive allosteric modulators, dose response, cell-based, HEK293 TRPC4/mu-opioid, Fluo-4 calcium, EC20 DAMGO (AID 434941).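 Further: HEK293 cells coexpressing TRPC4 and mu opioid receptor stimulated by EC20 DAMGO.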 In kind it is functional.

For data set [2], the system named is Streptococcus sp. 'group A'. Kind of data set: growth inhibition of control SK(-) GAS strain, dose response, counter-screen for streptokinase expression inhibitor project, luminescence, kanamycin, BacTiterGlo, confirmation (AID 1900). In kind it is functional, organism-based. (Counterscreens check selectivity or assay interference.)
Data set [3] addresses T2, Beta-galactosidase (Escherichia coli, UniProt Q8VNN2). Kind of data set: PubChem AID 485352. In kind it is functional.
A further data set has as its target T3, Streptokinase A (Streptococcus pyogenes serotype M1, UniProt P10520).
T3 sequence (P10520 whole entry): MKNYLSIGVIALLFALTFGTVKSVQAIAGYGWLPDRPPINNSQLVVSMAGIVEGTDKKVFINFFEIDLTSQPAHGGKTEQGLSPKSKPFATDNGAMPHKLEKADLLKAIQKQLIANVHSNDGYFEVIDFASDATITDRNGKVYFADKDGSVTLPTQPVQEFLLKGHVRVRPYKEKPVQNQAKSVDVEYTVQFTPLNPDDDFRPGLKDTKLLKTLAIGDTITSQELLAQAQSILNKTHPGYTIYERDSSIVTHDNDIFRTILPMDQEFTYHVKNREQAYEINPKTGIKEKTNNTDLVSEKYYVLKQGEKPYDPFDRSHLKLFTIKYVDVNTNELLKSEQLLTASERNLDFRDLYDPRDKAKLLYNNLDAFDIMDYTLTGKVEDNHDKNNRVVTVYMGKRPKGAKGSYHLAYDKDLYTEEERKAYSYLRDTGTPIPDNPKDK
In words: S. pyogenes streptokinase expression inhibitors, potency, dose response, plasminogen activation absorbance, OD405 (AID 1914).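 Further: secreted streptokinase activity via plasminogen activation per viability signal from cell pellet.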 In kind it is functional, Streptococcus pyogenes M1 GAS.

Data set [4] deals with T4, Type-1 angiotensin II receptor (Homo sapiens, UniProt P30556).
T4 sequence (P30556 whole entry): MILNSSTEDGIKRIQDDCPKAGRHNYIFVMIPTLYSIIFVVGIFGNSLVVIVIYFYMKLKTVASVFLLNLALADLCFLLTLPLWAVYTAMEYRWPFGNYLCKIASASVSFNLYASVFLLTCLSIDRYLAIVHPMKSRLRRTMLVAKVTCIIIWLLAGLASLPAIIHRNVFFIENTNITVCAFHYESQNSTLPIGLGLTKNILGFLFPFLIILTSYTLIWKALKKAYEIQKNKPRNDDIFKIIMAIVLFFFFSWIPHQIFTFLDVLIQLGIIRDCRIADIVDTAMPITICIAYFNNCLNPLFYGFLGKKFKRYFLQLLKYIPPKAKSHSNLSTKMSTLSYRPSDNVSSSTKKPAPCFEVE
In words: AT1 receptor antagonists, dose response, selectivity assay for APJ receptor antagonist project, cell-based, uHTS hits (AID 463214).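 Further: antagonist potency against angiotensin II stimulated AT1 response.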 In kind it is functional.

Data set [5] concerns the target T5, Kappa-type opioid receptor (Homo sapiens, UniProt P41145). In kind it is functional.
For data set [6], the target named is T2, Beta-galactosidase. In kind it is functional.
For data set [7], the target named is T5, Kappa-type opioid receptor. In kind it is functional. The source holds these as a separate data set.
Another data set relates to Streptococcus. Kind of data set: Group A Streptococcus viability loss, dose response, counter-screen for streptokinase expression inhibitor project, luminescence, BacTiterGlo (AID 1915).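 Further: potency for reduction of bacterial viability or growth.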 In kind it is functional, organism-based.
The nature of data set [8]: THP-1 cell cytotoxicity, dose response, cytotoxicity control for non-replicating M. tuberculosis project (AID 489025). In kind it is functional.
Data set [9] in a line: HepG2 cell cytotoxicity, dose response, cytotoxicity control for non-replicating M. tuberculosis project (AID 489018). In kind it is functional. As to conditions: Mycobacterium tuberculosis.
Data set [10] in a line: Vero E6 cell cytotoxicity, dose response, cytotoxicity control for non-replicating M. tuberculosis project, secondary assay (AID 492998). In kind it is functional, VeroE6. As to conditions: Vero C1008.
A short description of another data set: cells. In kind it is functional.
The next data set has as its system INS1. In words: beta cell apoptosis inhibitors, cytokine rescue, dose response, luminescence, retest (AID 449756).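 Further: cell death triggered by IL-1 beta plus TNF-alpha plus IFN-gamma mixture; protective hits raise ATP signal compared with cytokine alone wells.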 In kind it is functional, cell-based. As to conditions: Rattus norvegicus.
The nature of data set [11]: A549 cell cytotoxicity, dose response, cytotoxicity control, plate reader, cherry-pick, antagonist series (AID 743412). In kind it is functional, cell-based.
Data set [12] in a line: HepG2 cell cytotoxicity, dose response, cytotoxicity control, plate reader, cherry-pick, antagonist series (AID 743416). In kind it is functional, cell-based.
A short description of data set [13]: LGR2 antagonists, dose response, cell-based, HEK293, CRE-luciferase reporter, cherry pick, set 2 (AID 743343).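 Further: transfected cells were stimulated with diluted bursicon conditioned medium after compound addition.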 In kind it is functional. For orientation: Reporter assays use an easily measured gene product as a stand-in for the process of interest.
Data set [14] is described as follows: MC4R antagonists, dose response, counter-screen for LGR2 antagonist project, cell-based, plate reader, cherry pick (AID 743444).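 Further: transfected HEK 293 cells stimulated with alpha-MSH peptide; potency of inhibitors of the alpha-MSH evoked signal.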 In kind it is functional.
The nature of data set [15]: HEK293 cell cytotoxicity, dose response, cytotoxicity control, plate reader, cherry-picked samples (AID 743446). In kind it is functional, cell-based.
The target in data set [16] is T6, SUMO-activating enzyme (Homo sapiens, UniProt Q9UBT2). In words: SUMOylation inhibitor hit validation, confirmation, SUMOylation inhibitor project, biochemical, AlphaScreen (AID 2018). In kind it is functional. In general terms: In Alpha technology, singlet oxygen from a donor bead excites a nearby acceptor bead.
Data set [17] deals with T6, SUMO-activating enzyme. In words: inhibitors of in vitro SUMOylation cascade, primary screen, biochemical, HTRF, uHTS (AID 2006). In kind it is protein-complex assay.
The target in data set [18] is T7, Calpain-2 catalytic subunit (Sus scrofa, UniProt P43367).
T7 sequence (P43367 whole entry): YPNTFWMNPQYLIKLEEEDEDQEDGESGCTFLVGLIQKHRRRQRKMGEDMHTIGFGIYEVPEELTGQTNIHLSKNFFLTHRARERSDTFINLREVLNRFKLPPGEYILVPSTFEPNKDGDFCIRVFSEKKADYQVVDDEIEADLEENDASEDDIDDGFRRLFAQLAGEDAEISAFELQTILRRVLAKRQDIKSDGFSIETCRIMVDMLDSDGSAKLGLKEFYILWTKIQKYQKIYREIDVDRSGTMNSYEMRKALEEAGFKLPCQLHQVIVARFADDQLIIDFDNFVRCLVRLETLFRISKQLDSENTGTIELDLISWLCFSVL
Kind of data set: pig calpain II inhibitor potency, dose response, biochemical, fluorogenic peptide substrate (AID 1420). In kind it is functional.

In data set [19] the target is Dual specificity tyrosine-phosphorylation-regulated kinase 1A (Rattus norvegicus, UniProt Q63470). In kind it is biochemical, Homo sapiens.
The target in data set [20] is Intestinal-type alkaline phosphatase (Homo sapiens, UniProt P09923). Kind of data set: Dose Response confirmation of uHTS hits from a small molecule inhibitors of human intestinal alkaline phosphatase via a luminescent assay. [Related pubchem assays (depositor defined):AID2544, AID2574]. In kind it is functional.
The target of data set [21] is Induced myeloid leukemia cell differentiation protein Mcl-1 (Homo sapiens, UniProt Q07820). In kind it is functional.
Data set [22] deals with 26S proteasome non-ATPase regulatory subunit 14 (Homo sapiens, UniProt O00487). In words: inhibition of proteasome subunit RPN11 – biochemical, fluorescence polarization, uHTS hits, confirmation (AID 602368). In kind it is functional.
In data set [23] the target is 72 kDa type IV collagenase (Homo sapiens, UniProt P08253). In words: Dose Response validation of uHTS RPN11 inhibitor hits using a MMP-2 Fluorescence assay. In kind it is functional.
A further data set addresses Prothrombin (Bos taurus, UniProt P00735). In words: thrombin inhibition, dose response, biochemical, fluorescence polarization, uHTS hits (AID 602369). In kind it is functional.
In a further data set the target is Cytochrome P450 2D6 (Homo sapiens, UniProt P10635).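 Further: CYP2D6 member of a cytochrome P450 panel assay.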
The target of a further data set is Cytochrome P450 2C9 (Homo sapiens, UniProt P11712).
In data set [24] the target is T8, C-C chemokine receptor type 6 (Homo sapiens, UniProt P51684).
T8 sequence (P51684 whole entry): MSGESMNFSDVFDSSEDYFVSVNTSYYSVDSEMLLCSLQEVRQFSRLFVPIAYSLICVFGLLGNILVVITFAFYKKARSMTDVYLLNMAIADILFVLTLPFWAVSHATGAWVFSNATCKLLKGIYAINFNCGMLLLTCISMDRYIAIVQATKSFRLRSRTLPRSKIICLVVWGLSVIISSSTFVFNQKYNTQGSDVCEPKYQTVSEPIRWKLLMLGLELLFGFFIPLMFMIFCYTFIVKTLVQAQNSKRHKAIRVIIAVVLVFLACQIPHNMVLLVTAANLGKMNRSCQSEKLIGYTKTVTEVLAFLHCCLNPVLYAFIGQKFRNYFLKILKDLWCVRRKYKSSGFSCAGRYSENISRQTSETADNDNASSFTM
In words: CCR6 receptor antagonists, dose response, cell-based, luminescent beta-arrestin readout (AID 504728). In kind it is functional.

The target in data set [25] is T2, Beta-galactosidase. Kind of data set: beta-galactosidase enzyme inhibitors and activators, dose response, artefact control for CCR6 antagonist project, biochemical, E. coli enzyme, set 3 (AID 504712). In kind it is functional.

T6 sequence (Q9UBE0 whole entry): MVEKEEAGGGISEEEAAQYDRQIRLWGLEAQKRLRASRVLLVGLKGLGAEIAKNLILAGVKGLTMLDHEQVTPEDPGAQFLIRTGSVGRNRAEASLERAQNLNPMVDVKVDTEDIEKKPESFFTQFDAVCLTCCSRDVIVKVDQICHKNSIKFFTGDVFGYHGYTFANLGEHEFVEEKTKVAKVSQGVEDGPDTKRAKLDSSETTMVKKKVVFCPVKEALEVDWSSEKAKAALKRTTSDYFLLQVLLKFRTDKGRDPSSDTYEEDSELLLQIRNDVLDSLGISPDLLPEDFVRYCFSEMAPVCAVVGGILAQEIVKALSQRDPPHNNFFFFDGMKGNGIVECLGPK
T6 sequence (Q9UBT2 whole entry): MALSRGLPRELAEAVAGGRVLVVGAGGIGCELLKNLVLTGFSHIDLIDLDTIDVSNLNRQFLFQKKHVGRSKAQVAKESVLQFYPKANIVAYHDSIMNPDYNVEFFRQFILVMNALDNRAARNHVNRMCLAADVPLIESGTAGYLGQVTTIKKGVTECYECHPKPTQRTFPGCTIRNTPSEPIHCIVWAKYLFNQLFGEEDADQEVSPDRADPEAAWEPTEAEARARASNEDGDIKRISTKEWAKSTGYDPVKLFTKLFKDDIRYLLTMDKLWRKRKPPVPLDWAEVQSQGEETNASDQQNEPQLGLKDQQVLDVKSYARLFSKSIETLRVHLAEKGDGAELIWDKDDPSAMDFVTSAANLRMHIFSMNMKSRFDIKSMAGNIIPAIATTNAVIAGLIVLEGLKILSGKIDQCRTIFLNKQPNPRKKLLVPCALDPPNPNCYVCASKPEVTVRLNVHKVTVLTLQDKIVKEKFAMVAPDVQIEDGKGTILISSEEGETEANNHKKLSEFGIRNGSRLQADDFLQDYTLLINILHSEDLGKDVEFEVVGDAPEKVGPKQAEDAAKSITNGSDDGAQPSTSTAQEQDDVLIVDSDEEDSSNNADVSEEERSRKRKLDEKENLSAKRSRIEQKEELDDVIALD
T2 sequence (Q8VNN2 whole entry): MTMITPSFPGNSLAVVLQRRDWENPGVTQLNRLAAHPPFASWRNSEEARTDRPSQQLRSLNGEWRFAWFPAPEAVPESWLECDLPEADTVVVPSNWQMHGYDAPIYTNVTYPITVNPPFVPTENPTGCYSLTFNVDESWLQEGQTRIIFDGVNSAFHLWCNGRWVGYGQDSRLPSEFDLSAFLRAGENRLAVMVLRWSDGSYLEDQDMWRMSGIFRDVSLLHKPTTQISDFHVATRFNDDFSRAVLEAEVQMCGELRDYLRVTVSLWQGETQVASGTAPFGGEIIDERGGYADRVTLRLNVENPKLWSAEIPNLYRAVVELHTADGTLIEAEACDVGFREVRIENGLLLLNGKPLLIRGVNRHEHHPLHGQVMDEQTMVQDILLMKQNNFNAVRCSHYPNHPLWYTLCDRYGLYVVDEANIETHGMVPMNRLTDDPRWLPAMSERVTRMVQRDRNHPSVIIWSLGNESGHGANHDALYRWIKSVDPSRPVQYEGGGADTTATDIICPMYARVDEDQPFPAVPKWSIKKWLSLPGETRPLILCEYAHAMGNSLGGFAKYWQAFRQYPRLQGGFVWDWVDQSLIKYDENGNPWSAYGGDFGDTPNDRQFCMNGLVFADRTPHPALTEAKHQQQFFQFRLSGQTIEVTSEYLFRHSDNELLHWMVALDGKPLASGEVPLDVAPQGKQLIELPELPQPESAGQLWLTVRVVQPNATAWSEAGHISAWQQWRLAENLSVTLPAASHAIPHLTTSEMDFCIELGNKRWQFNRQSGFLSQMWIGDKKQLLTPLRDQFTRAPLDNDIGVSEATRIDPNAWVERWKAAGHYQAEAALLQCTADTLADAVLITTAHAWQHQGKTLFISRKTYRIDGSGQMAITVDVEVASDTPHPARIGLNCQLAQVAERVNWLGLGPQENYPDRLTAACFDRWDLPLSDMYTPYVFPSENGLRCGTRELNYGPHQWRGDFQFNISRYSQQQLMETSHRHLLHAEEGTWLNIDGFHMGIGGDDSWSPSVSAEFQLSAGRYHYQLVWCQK
T5 sequence (P41145 whole entry): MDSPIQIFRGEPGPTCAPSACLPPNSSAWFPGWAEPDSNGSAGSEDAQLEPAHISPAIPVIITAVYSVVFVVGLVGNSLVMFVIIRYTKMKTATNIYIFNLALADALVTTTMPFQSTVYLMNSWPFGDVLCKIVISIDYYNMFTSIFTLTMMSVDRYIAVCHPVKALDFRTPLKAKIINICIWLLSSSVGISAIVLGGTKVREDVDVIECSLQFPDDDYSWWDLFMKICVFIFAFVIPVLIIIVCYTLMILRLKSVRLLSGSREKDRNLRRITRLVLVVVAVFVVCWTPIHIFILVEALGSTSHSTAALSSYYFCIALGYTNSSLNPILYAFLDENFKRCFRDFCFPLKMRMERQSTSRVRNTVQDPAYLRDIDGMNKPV
Chain of Cytochrome P450 2C9 (P11712 whole entry): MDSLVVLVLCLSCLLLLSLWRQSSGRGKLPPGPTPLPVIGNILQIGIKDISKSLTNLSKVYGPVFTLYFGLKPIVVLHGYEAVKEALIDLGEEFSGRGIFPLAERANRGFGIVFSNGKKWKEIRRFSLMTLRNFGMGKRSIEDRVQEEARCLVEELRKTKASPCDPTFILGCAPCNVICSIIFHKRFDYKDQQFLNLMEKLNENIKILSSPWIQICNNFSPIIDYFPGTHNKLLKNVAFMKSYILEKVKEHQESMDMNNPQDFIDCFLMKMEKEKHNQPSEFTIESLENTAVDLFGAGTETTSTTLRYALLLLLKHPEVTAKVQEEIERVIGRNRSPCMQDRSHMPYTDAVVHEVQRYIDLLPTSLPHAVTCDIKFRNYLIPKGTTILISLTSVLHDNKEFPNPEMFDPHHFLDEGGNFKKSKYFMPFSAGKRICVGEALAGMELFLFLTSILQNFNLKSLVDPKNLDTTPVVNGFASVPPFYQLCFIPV
Chain of Intestinal-type alkaline phosphatase (P09923 whole entry): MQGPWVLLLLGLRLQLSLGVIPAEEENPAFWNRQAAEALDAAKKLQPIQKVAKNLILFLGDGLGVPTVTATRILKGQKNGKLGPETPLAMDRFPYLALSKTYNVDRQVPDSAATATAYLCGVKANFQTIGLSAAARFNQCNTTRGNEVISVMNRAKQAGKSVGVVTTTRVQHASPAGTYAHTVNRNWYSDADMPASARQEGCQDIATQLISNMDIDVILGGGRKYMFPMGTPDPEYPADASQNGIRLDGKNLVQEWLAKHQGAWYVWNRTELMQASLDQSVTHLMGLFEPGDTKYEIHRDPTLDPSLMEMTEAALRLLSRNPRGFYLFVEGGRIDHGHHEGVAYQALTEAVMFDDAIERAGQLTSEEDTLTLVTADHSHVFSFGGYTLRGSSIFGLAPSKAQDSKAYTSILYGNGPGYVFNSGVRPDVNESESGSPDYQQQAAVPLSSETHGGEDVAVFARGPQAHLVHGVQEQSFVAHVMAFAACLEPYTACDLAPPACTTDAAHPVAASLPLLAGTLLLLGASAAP
Chain of 26S proteasome non-ATPase regulatory subunit 14 (O00487 whole entry): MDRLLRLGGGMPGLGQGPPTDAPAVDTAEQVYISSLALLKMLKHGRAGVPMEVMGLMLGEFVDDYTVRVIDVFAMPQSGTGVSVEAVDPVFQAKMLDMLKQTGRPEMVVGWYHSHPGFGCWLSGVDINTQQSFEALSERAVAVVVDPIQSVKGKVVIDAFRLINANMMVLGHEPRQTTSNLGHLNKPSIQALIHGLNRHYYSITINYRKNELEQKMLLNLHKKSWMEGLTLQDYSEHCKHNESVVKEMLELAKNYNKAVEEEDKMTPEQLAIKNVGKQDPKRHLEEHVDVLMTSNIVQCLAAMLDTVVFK
Chain of 72 kDa type IV collagenase (P08253 whole entry): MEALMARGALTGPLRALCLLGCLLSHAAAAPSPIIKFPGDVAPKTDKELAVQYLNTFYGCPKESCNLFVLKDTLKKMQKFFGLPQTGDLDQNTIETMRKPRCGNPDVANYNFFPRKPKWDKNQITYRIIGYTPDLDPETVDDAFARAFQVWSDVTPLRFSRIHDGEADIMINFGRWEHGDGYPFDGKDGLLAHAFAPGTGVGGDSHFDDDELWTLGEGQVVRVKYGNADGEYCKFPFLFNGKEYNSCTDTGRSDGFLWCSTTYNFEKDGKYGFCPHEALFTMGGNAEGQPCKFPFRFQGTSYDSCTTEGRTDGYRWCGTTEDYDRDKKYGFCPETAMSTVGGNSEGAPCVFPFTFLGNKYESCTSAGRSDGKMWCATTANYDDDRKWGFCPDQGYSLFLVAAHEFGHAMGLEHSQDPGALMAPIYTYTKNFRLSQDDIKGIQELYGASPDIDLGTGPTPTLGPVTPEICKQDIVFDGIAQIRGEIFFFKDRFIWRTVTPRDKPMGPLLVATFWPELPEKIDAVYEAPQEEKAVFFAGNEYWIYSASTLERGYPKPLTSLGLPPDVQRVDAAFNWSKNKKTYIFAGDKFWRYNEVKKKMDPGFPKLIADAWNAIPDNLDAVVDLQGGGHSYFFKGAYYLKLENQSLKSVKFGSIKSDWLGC
Chain of Induced myeloid leukemia cell differentiation protein Mcl-1 (Q07820 whole entry): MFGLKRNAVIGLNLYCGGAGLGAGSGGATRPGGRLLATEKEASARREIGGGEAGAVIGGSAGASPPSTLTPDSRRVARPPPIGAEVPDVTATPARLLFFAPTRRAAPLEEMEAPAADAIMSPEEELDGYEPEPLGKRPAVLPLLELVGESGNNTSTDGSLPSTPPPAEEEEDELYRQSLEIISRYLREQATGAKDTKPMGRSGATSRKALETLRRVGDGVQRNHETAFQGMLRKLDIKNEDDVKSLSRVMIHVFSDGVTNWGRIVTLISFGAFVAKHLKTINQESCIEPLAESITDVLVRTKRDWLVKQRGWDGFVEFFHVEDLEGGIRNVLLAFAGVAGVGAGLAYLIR

Turning to `Cc1ccc(/C=N/NC(=O)NC2CCCCC2)o1`, the EC50 in data set [1] is 3.35 µM (active).

In the case of `O=C(Nc1nc2ccc(F)cc2s1)c1ccccn1`, the EC50 in [2] was 2.5 µM (active); at Beta-galactosidase [3], > 40 µM (inactive); on Streptokinase A, > 150 µM (not active); at Beta-galactosidase [6], > 31.5 µM (inactive); in the data set with Streptococcus it was 10.1 µM (active). In addition, the half-inhibitory concentration (IC50) is 3.96 µM (active) in data set [4], 4.6 µM (active) in [5], greater than 32 µM in data set [7] and < 0.1 µM (active) in the data set “cells”. Moreover, the CC50 was 0.982 µM (active) in data set [8], > 5 µM (active) in [9] and 3.18 µM (active) in data set [10]. Besides, the AC50 with INS1 was 2.72 µM (active); in data set [11], 3.57 µM (active); in data set [12], 10 µM (active); in data set [13], 1.21 µM (active); in data set [14] it was 1.61 µM (active); in data set [15], 8.2 µM (active).

`O=C(Nc1ccc(F)cc1)C(=O)c1c(O)[nH]c2ccc([N+](=O)[O-])cc12`: the IC50 on SUMO-activating enzyme [16] was 9.48 µM (active); at SUMO-activating enzyme [17] it was 24 µM (active); in data set [18] it was > 50 µM (not active). In addition, the AC50 in data set [19] is 10.4 µM (active).

As for `NC(=O)c1ccc(NC(=O)C2CCCC2)cc1`, the IC50 in data set [20] was > 100 µM (inactive).

As for `Cc1ccc(CSc2nnc(SCC(=O)N/N=C/c3c[nH]c4ccccc34)s2)cc1`, the IC50 is 1.38 µM (active) at SUMO-activating enzyme [16]; 17.6 µM (active) at SUMO-activating enzyme [17]; 3.91 µM (active) in data set [21]; 6.88 µM (active) in [22]; > 100 µM (inactive) in [23]; 55.4 µM (active) on Prothrombin.

Turning to `COc1ccc2[nH]cc(CCN(C)C)c2c1` [MEBUFOTENIN], the EC50 in data set [1] is 0.67 µM (active). Besides, the figures for the half-maximal activity concentration (AC50) on Cytochrome P450 2D6 and at Cytochrome P450 2C9 were 20 µM (inconclusive) and “inconclusive”, respectively.

As for `Cc1cc(N/N=C/c2ccc(F)cc2)nc(-n2nc(C)cc2C)n1`, the CC50 is 10.8 µM (active) in data set [8], > 20 µM (active) in [9] and 15.6 µM (active) in data set [10]. Moreover, the IC50 in data set [24] is > 66.6 µM (inactive); at Beta-galactosidase [25], > 66.6 µM (inactive); in “cells”, < 0.1 µM (active). Besides, in the data set with INS1, the AC50 was 2.81 µM (active).

One may read the EC50 as the midpoint of the concentration-response curve. The IC50 is the concentration at which inhibition is half-maximal. The term CC50 denotes the concentration that lowers cell viability or growth by half. Broadly, the AC50 is the concentration giving half of the maximal activity seen.
